Reference: PMC8541353, “A Novel Phenylpyrrolidine Derivative: Synthesis and Effect on Cognitive Functions in Rats with Experimental Ishemic Stroke” (Molecules, 2021)
Values joined by “and” are separate entries in the source; they are usually repeats but may differ in a detail not shown here. Identical values can stand only once. Like-named read-outs stand apart in the source and are kept apart here.

Columns and labels:
[1] = tested on: newborn rat cortical neurons; assay: Glutamate-induced excitotoxicity in newborn rat cortical neuron culture, MTT cell viability; type: cell-based, Wistar rats
From the text: To confirm the predicted biological activity, we adopted a glutamate-induced excitotoxicity in the rat cortical neurons model. This work was based on previous findings that glutamate is a well-known excitatory CNS neurotransmitter, which contributes to normal neural transmission, development, differentiation, and plasticity. However, excessive extracellular glutamate levels cause uncontrolled continuous neuron depolarization, which can lead to neuronal death. Excitotoxicity is associated with several neurodegenerative conditions, including Huntington’s disease, Alzheimer’s disease, amyotrophic lateral sclerosis, Parkinson’s disease, and stroke/traumatic brain injury. To see whether compound 1 has neuroprotective effects, we studied the influence of compound 1 in glutamate-treated cortical neurons isolated from newborn Wistar rats (0–1 day).
The primary culture of newborn rat cortical neurons was obtained as previously described. Briefly, cortical neurons were collected from newborn Wistar rats and inoculated onto culture plates (4 × 10^5 cell cm^–2). […]
The cell viability was measured according to the cell ability of tetrazolium dye reduction. […] The formazan absorption at 492 nm was measured using a Zenyth 1100 (Anthos Labtec Instruments, GmbH, Salzburg, Austria) microplate reader.

[2] = Concentration of compound 1 in plasma, striatum and cortex by HPLC-MS (intact and MCAO rats); type: in vivo; conditions: for concentration at 60 min: rat
Description: The calculated data are consistent with the experimental data in intact animals. The concentration of compound 1 was determined in the striatum and frontal cortex by HPLC MS. Sixty minutes after the intravenous administration of compound 1, we anesthetized the rats with isoflurane. Afterward, we drained the blood from the heart, opened the chest, dissected the heart muscle, incised the left atrial appendage, and inserted an 18G needle into the right atrium. The pulmonary circulation was washed with 350 mL of 0.9% NaCl containing 1.0 mL of heparin. After the washing procedure, the rat was decapitated and the brain was removed and dissected. We determined the concentrations of compound 1 using an HPLC MS system. The concentration of compound 1 in plasma and the striatum differed by 650 times, and the concentration in plasma and the cortex differed by 630 times (Table 6).
Brain. A brain sample weighing 50 mg (± 2 mg) was placed in 2 mL tubes and 10 μL of an aqueous solution of an internal standard with a concentration of 1 μg mL^−1 was added, then 140 μL of a 1% aqueous solution of formic acid was added and homogenized. Brain samples were ground in a Precellys Evolution homogenizer using 2 mL tubes with ceramic balls at room temperature at a speed of 4500 vibrations min^−1 for 2 cycles of 90 s. After that, 400 μL of chloroform was added. The sample was shaken and centrifuged at 10,621 g for 2 min. The aqueous layer of the liquid was taken and 400 μL of chloroform was added. The sample was shaken and centrifuged at 10,621 g for 2 min. The supernatant was taken for analysis.
Plasma. A total of 10 μL of an aqueous solution of an internal standard with a concentration of 1 mg mL^−1 was added to 50 μL of plasma. A total of10 μL of formic acid and 150 μL of a 0.2% solution of formic acid in methanol was added to the solution. A total of 780 μL of deionized water was added to the resulting solution. The solution was centrifuged at 10,621 g for 2 min. The supernatant was collected and analyzed.
Analyses were performed by a Shimadzu 20 (Shimadzu, Kyoto, Japan) system consisting of HPLC coupled to triple quadrupole mass spectrometer Shimadzu 8040 (Shimadzu, Japan). The chromatographic separation was performed on Discovery C18 column 3 × 150 mm, 5 μm in a gradient mode with mobile phase components A (0.01M ammonium acetate in water) and B (acetonitrile). The gradient cycle was performed in the following way: 0–6 min 5–40% B, 6.01–10 min 40–95%, 10.01–15 min, isocratic elution with 100% B, and then returned to the initial condition. The column temperature was 60 °C. The sample injection volume was 20 μL. The autosampler temperature was 8 °C.
The electrospray ionization (ESI) source was set in positive ionization mode. Multiple reaction monitoring was used to perform mass spectrometric quantification. MS conditions: interface voltage 3,500 V ([…]), nebulizer gas (nitrogen) flow 2.5 l min^−1, drying gas (nitrogen) flow 15 L min^−1, CID gas pressure 230 kPa, DL temperature 200 °C, and heat block temperature 500 °C. High-purity argon was used as collision gas. The precursor and product ions (m/z) of target analytes were 327.10 and 174.10 for compound 1 and 236.10 and 154.15 for internal standard; collision energy was −20 V for both compounds.

O=C(CN1CC(c2ccccc2)CC1=O)NCCS(=O)(=O)[O-].[K+] (centres unmarked) [Compound 1, potassium 2-[2-(2-oxo-4-phenylpyrrolidin-1-yl)acetamido]ethane-1-sulfonate]
Increase of cell survival rate ([1]; 50 µM compound 1 after exposure to 50 µM glutamate, MTT, maximum protective effect): 37%
Neuroprotective effect at higher dose ([1]; 100 μM compound 1): decreases
Increase of BBB permeability after MCAO ([2]; 24 h after MCAO vs intact animals): ~10 fold
Concentration in the brain ([2]; intact animals): 0.3 μg g^–1
Cplasma/Ccortex ([2]; intact animals): 630 and 630.9 ± 98.6
Cplasma/Cstriatum ([2]; intact animals): 650 and 651.2 ± 52.0
concentration at 60 min ([2]; brain, intravenous, intact animals, read-out: Concentration in the brain): 300 ng/g
concentration at 60 min ([2]; brain, intravenous, rats with hemispheric stroke (24 h after MCAO), read-out: Concentration in the brain): 2600 ng/g
concentration at 60 min ([2]; cortex, iv, intact animals, 60 min after intravenous administration, read-out: Ccortex): 255000 ± 78200 ng/g
concentration at 60 min ([2]; plasma, intravenous, rats 24 h after MCAO, read-out: Cplasma): 13800 ± 3600 ng/mL
concentration at 60 min ([2]; plasma, iv, intact animals, 60 min after intravenous administration, read-out: Cplasma): 16100 ± 5800 ng/mL
concentration at 60 min ([2]; striatum, iv, intact animals, 60 min after intravenous administration, read-out: Cstriatum): 247000 ± 42600 ng/g
Cplasma/Ccortex ([2]; rats 24 h after MCAO): 37.9 ± 6.0
Cplasma/Cstriatum ([2]; rats 24 h after MCAO): 89.7 ± 9.4
